Read-outs that look alike come from different tables or passages of the source.
Target: T1, Akt1 (Homo sapiens, UniProt P31749, S473D)
T1 construct: The version of Akt used in these studies lacks the pleckstrin homology (PH) domain
Assay: Akt1 kinase assay, fluorescence polarization (IMAP)
Format: biochemical
Method: The Akt1 kinase assay is based on the measurement of fluorescence polarization using IMAP technology (Molecular Devices Corporation #R8062). Two microliters of inhibitor compounds diluted to a concentration of 10 millimolar are added to column 2 of a polypropylene 96-well plate containing 98 microliters of 100% DMSO; the wells in columns 3-12 contain 60 microliters of 100% DMSO. The various test compounds are serially diluted 1:3 across the plate by pipetting 30 microliters of compounds into wells containing 60 microliters of 100% DMSO. Column 12 receives DMSO only and is used as a negative control for inhibition. The components of the wells are mixed and 15 microliters of each well are transferred to another 96-well plate already containing 60 microliters of reaction buffer (RB: 10 mM Tris-HCl, pH 7.5, 10 mM MgCl2, 0.1 mM EGTA, 0.01% Triton-X100 (Sigma #X-100), freshly added 1 mM DTT). After mixing, the […] reactions are assembled. First, five microliters of the above compound/reaction buffer mixture is transferred to the bottom of a 96-well black polystyrene reaction plate (Costar, #3694). Next, ten microliters of a solution containing 4 micromolar ATP and 40 nanomolar fluorescent-labeled Crosstide (Tamara-labeled […] peptide) are added. Then, 5 microliters (1.5 nanograms) of Akt protein in RB are added. The version of Akt used in these studies lacks the pleckstrin homology (PH) domain, and contains an aspartic acid residue in place of a serine residue in position 473 within the Akt1 hydrophobic motif. The Akt1 protein contains a polyhistidine tag at the amino terminus and is prephosphorylated on threonine at position 308 in order to activate latent kinase activity. Once the reaction components and inhibitors are assembled, the plates are gently tapped, covered with foil, and then incubated at ambient temperature for 30 minutes. IMAP beads (Molecular Devices) are then added (60 microliters of a 1:400 dilution of beads in RB). Plates are read on a Victor Plate Reader with the following settings: CW lamp filter: 544 nm, emission filter: 615 nm. Control values from wells lacking Akt protein are subtracted from the gross readings, and IC50 values are calculated using XLDA.

[1] = Table 3, read-out: Avg Akt kinase, μM (50% inhibition)
[2] = Table 1, concentration bins, read-out: Concentration Range at which exemplary compounds of formula I inhibit Akt kinase activity

T1 sequence (P31749 118-480 S473D limits assumed, species assumed): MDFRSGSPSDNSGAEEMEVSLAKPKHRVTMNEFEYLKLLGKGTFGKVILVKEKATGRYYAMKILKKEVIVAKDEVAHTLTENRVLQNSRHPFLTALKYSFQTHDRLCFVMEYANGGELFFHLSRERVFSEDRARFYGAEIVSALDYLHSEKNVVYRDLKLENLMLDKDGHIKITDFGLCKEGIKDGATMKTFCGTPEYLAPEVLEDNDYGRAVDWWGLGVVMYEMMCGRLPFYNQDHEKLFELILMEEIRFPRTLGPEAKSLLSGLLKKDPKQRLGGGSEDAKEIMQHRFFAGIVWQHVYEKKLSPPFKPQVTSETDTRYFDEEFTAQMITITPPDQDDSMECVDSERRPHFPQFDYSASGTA

Molecule | IC50 [1] [µM] | IC50 [2] [µM]
3-{[(4-chlorophenyl)amino]methyl}-1-(1H-pyrrolo[2,3-b]pyridin-4-yl)pyrrolidin-3-amine [Example 17] | 0.331 | –
CCc1c[nH]c2ncnc(N3CC[C@](N)(CNc4cc(C)on4)C3)c12 [Example 1, N—(((S)-3-amino-1-(5-ethyl-7H-pyrrolo[2,3-d]pyrimidin-4-yl)pyrrolidin-3-yl)methyl)-5-methylisoxazol-3-amine] | 0.0154 | 0.0101 to 0.1
N#Cc1c[nH]c2ncnc(N3CCC(N)(CNc4ccc(Cl)cc4)C3)c12 (stereo not shown) [Example 4, 4-{3-amino-3-[(4-chloro-phenylamino)-methyl]-pyrrolidin-1-yl}-7H-pyrrolo[2,3-d]pyrimidine-5-carbonitrile] | 0.041 | 0.0101 to 0.1
COC(=O)c1ccccc1NCC1(N)CCN(c2ncnc3[nH]nc(C)c23)C1 (stereo not shown) [Example 5, 2-{[3-Amino-1-(3-methyl-1H-pyrazolo[3,4-d]pyrimidin-4-yl)-pyrrolidin-3-ylmethyl]-amino}-benzoic acid methyl ester] | 0.394 | 0.101 to 10
N#Cc1n[nH]c2ncnc(N3CCC(N)(CNc4cccc(Cl)c4F)C3)c12 (stereo not shown) [Example 7, 4-(3-amino-3-((3-chloro-2-fluorophenylamino)methyl)pyrrolidin-1-yl)-1H-pyrazolo[3,4-d]pyrimidine-3-carbonitrile] | 0.0523 | 0.0101 to 0.1
N#Cc1n[nH]c2ncnc(N3CCC(N)(CNc4cccc(Cl)c4)C3)c12 (stereo not shown) [Example 8, 4-{3-Amino-3-[(3-chloro-phenylamino)-methyl]-pyrrolidin-1-yl}-1H-pyrazolo[3,4-d]pyrimidine-3-carbonitrile] | 0.249 | 0.101 to 10
N#Cc1c[nH]c2nccc(N3CCC(N)(CNc4ccccc4Oc4ccccc4)C3)c12 (stereo not shown) [Example 11, 4-(3-amino-3-{[(2-phenoxyphenyl)amino]methyl}pyrrolidin-1-yl)-1H-pyrrolo[2,3-b]pyridine-3-carbonitrile] | – | 0.00251 to 0.01
NC1(CNc2cccc(C(F)(F)F)c2)CCN(c2ncnc3[nH]cnc23)C1 (stereo not shown) [Example 14, 1-(9H-purin-6-yl)-3-({[3-(trifluoromethyl)phenyl]amino}-methyl)pyrrolidin-3-amine] | 0.108 | 0.101 to 10
Cc1c[nH]c2ncnc(N3CCC(N)(CNc4ccccc4S(=O)(=O)N4CC[C@@H](F)C4)C3)c12 (stereo partly drawn) [Example 15, 3-{[(2-{[(3R)-3-fluoropyrrolidin-1-yl]sulfonyl}phenyl)amino]methyl}-1-(5-methyl-7H-pyrrolo[2,3-d]pyrimidin-4-yl)pyrrolidin-3-amine] | 0.0154 | 0.0101 to 0.1
Cc1c[nH]c2ncnc(N3CCC(N)(CNc4ccc(CC(N)=O)cc4)C3)c12 (stereo not shown) [Example 16, 2-[4-({[3-amino-1-(5-methyl-7H-pyrrolo[2,3-d]pyrimidin-4-yl)pyrrolidin-3-yl]methyl}amino)phenyl]-acetamide] | 0.0143 | 0.0101 to 0.1
Cc1c[nH]c2ncnc(N3CCC(N)(CNc4ccccc4Oc4ccccc4)C3)c12 (stereo not shown) [Example 20, 1-(5-methyl-7H-pyrrolo[2,3-d]pyrimidin-4-yl)-3-{[(2-phenoxyphenyl)amino]methyl}-pyrrolidin-3-amine] | 0.0155 | 0.0101 to 0.1
Cc1c[nH]c2ncnc(N3CCC(N)(CNc4ccc(C#N)c(Cl)c4)C3)c12 (stereo not shown) [Example 22, 4-({[3-amino-1-(5-methyl-7H-pyrrolo[2,3-d]pyrimidin-4-yl)pyrrolidin-3-yl]methyl}amino)-2-chlorobenzonitrile] | 0.0161 | 0.0101 to 0.1
Cc1c[nH]c2ncnc(N3CCC(N)(CNc4cccc(OC(F)(F)F)c4)C3)c12 (stereo not shown) [Example 25, 1-(5-methyl-7H-pyrrolo[2,3-d]pyrimidin-4-yl)-3-({[3-(trifluoromethoxy)phenyl]amino}methyl)pyrrolidin-3-amine] | 0.0145 | 0.0101 to 0.1
Cc1c[nH]c2ncnc(N3CCC(N)(CNc4ccccc4C(=O)NCc4ccccc4)C3)c12 (stereo not shown) [Example 27, 2-({[3-amino-1-(5-methyl-7H-pyrrolo[2,3-d]pyrimidin-4-yl)pyrrolidin-3-yl]methyl}amimo)-N-benzylbenzamide] | 5.29 | 0.101 to 10

Second part, the molecule after the results:

IC50 [1] [µM] | IC50 [2] [µM] | Molecule
0.0012 | 0.00025 to 0.0025 | Cc1c[nH]c2ncnc(N3CCC(N)(CNc4cccc(C(F)(F)F)c4F)C3)c12 (stereo not shown) [Example 3]
0.0134 | 0.0101 to 0.1 | NC1(CNc2cccc(Oc3ccccc3)c2)CCN(c2ncnc3[nH]cc(Cl)c23)C1 (stereo not shown) [Example 6, 1-(5-Chloro-7H-pyrrolo[2,3-d]pyrimidin-4-yl)-3-[(3-phenoxy-phenylamino)-methyl]-pyrrolidin-3-ylamine]
0.002 | 0.00025 to 0.0025 | CCc1c[nH]c2ncnc(N3CCC(N)(CNc4cccc(C(F)(F)F)c4)C3)c12 (stereo not shown) [Example 9]
0.003 | 0.00251 to 0.01 | Cc1ccn2ncnc(N3CCC(N)(CNc4cccc(Cl)c4Cl)C3)c12 (stereo not shown) [Example 10, 3-{[(2,3-dichlorophenyl)amino]methyl}-1-(5-methylpyrrolo[2,1-f][1,2,4]triazin-4-yl)pyrrolidin-3-amine]
0.0105 | 0.0101 to 0.1 | Cc1c[nH]c2ncnc(N3CCC(N)(CNc4ccc(S(=O)(=O)NCc5ccccc5)cc4)C3)c12 (stereo not shown) [Example 12, 4-({[3-amino-1-(5-methyl-7H-pyrrolo[2,3-d]pyrimidin-4-yl)pyrrolidin-3-yl]methyl}amino)-N-benzylbenzenesulfonamide]
0.00226 | 0.00025 to 0.0025 | Cc1c[nH]c2ncnc(N3CC[C@](N)(CNc4cccc(C(F)(F)F)c4)C3)c12 [Example 13, (3S)-1-(5-methyl-7H-pyrrolo[2,3-d]pyrimidin-4-yl)-3-({[3-(trifluoromethyl)phenyl]amino}-methyl)pyrrolidin-3-amine]
0.002 | 0.00025 to 0.0025 | Cc1c[nH]c2ncnc(N3CC[C@](N)(CNc4ccc(Cl)cc4)C3)c12 [Example 18, (3S)-3-{[(4-chlorophenyl)amino]methyl}-1-(5-methyl-7H-pyrrolo[2,3-d]pyrimidin-4-yl)pyrrolidin-3-amine]
0.01 | 0.00251 to 0.01 | COC(=O)c1ccccc1NCC1(N)CCN(c2ncnc3[nH]cc(C)c23)C1 (stereo not shown) [Example 19]
0.00553 | 0.00251 to 0.01 | Cc1c[nH]c2ncnc(N3CCC(N)(CNc4cccc(Cl)c4F)C3)c12 (stereo not shown) [Example 21, 3-{[(3-chloro-2-fluorophenyl)amino]methyl}-1-(5-methyl-7H-pyrrolo[2,3-d]pyrimidin-4-yl)pyrrolidin-3-amine]
0.00669 | 0.00251 to 0.01 | Cc1c[nH]c2ncnc(N3CCC(N)(CNc4cccc(C(F)(F)F)c4)C3)c12 (stereo not shown) [Example 23, 1-(5-methyl-7H-pyrrolo[2,3-d]pyrimidin-4-yl)-3-({[3-(trifluoromethyl)phenyl]amino}-methyl)pyrrolidin-3-amine]
0.0108 | 0.0101 to 0.1 | Cc1c[nH]c2ncnc(N3CCC(N)(CNc4ccccc4N4CCCCC4)C3)c12 (stereo not shown) [Example 24, 1-(5-methyl-7H-pyrrolo[2,3-d]pyrimidin-4-yl)-3-{[(2-piperidin-1-ylphenyl)amino]methyl}pyrrolidin-3-amine]
0.002 | 0.00025 to 0.0025 | Cc1c[nH]c2ncnc(N3CCC(N)(CNc4cccc(Cl)c4Cl)C3)c12 (stereo not shown) [Example 26, 3-{[(2,3-dichlorophenyl)amino]methyl}-1-(5-methyl-7H-pyrrolo[2,3-d]pyrimidin-4-yl)pyrrolidin-3-amine]
0.00952 | 0.00251 to 0.01 | Cc1c(F)cccc1NCC1(N)CCN(c2ncnc3[nH]cc(C)c23)C1 (stereo not shown) [Example 28, 3-{[(3-fluoro-2-methylphenyl)amino]methyl}-1-(5-methyl-7H-pyrrolo[2,3-d]pyrimidin-4-yl)pyrrolidin-3-amine]
0.0101 | 0.0101 to 0.1 | Cc1c[nH]c2ncnc(N3CCC(N)(CNc4ccccc4N4CCOCC4)C3)c12 (stereo not shown) [Example 29, 1-(5-methyl-7H-pyrrolo[2,3-d]pyrimidin-4-yl)-3-{[(2-morpholin-4-ylphenyl)amino]methyl}pyrrolidin-3-amine]
0.0135 | 0.0101 to 0.1 | COc1cc(NCC2(N)CCN(c3ncnc4[nH]cc(C)c34)C2)cc(C(F)(F)F)c1 (stereo not shown) [Example 30, 3-({[3-methoxy-5-(trifluoromethyl)phenyl]amino}-methyl)-1-(5-methyl-7H-pyrrolo[2,3-d]pyrimidin-4-yl)pyrrolidin-3-amine]
0.00514 | 0.00251 to 0.01 | Cc1c[nH]c2ncnc(N3CCC(N)(CNc4ccc(Cl)cc4F)C3)c12 (stereo not shown) [Example 31, 3-{[(4-chloro-2-fluorophenyl)amino]methyl}-1-(5-methyl-7H-pyrrolo[2,3-d]pyrimidin-4-yl)pyrrolidin-3-amine]
